Laboratory results as given in the NIST ThermoML archive (doi:10.1021/acs.jced.5b00985).
Numbers after ± are expanded uncertainties.

Test: mn = molality of the nth substance listed, in mol/kg
Settings: 100.8 kPa, Liquid, Pycnometric method

With [NH4+].[O]=[V](=[O])[O-] [ammonium vanadate] + O as the compound, how does the mass density (313.15 K, m1 = 0.0946) read?
Its mass density is 1002.1 ± 2 kg/m3.

And the mass density (343.15 K, m1 = 0.2563)?
The mass density was 1001.1 ± 2.3 kg/m3.

What about the mass density (343.15 K, m1 = 0.2612) of the same compound?
Its mass density is 1001.3 ± 2.1 kg/m3.
